The source of these data is US8158828B2, “Nuclear receptor binding agents” (priority 2005, dated 2012).

Entries after “also recorded” stand apart in the source; their conditions may differ.

The IC50 is the concentration needed to halve the response being measured.

In one experiment the test system is uterus. As to the kind of experiment: In vivo estrogenic activity, uterine weight. On the set-up: species or system rat. The conditions noted are these: female rats; for estrogenic activity in terms of uterine weight: compound alone. The protocol:
Rats that were administered the vehicle alone served as controls.

Experiment [1] has as its system TRAP positive multinucleated osteoclasts. As to the kind of experiment: TRAP positive multinucleated osteoclasts from bone marrow cells. It counts as cell-based, rat. The conditions noted are these: RANKL and GMCSF, 12 days. The protocol:
FIG. 7: Effect of the indicated compounds on TRAP positive multinucleated osteoclasts. Bone marrow cells from rat femur was cultured in Alpha MEM+10% csFBS without phenol red in the presence or absence of 30 ng/ml RANKL and 10 ng/ml GMCSF. The cells were treated for 12 days and were stained for tartarate resistant acid phosphatase activity (TRAP) and multinucleated osteoclasts were counted.
Bone marrow cells isolated from rat femur were cultured in Alpha MEM without phenol red+10% sterile FBS without phenol red in the presence or absence of […] RANKL and 10 ng/ml GMCSF. The cells were treated for 12 days were stained for tartarate resistant acid phosphatase activity (TRAP) positive multinucleated osteoclasts and were counted.

In the next experiment the target is T1, ER-β (Rattus norvegicus, UniProt Q62986).
T1 construct: expressed in transfected cells; host or cells: COS or 293 cells
Briefly: ER-β transactivation, ERE-LUC in COS or 293 cells. The class given is cell-based. On the set-up: % estardiol activity, ER-β: dose or concentration left out as unconfirmed. Particulars: for ER-β LUC expression, compound alone / inhibition of E2-stimulated LUC expression, ER-β: COS or 293 cells; for inhibition of E2-stimulated LUC expression, ER-β: with E2.

Another experiment has as its target T2, ER-α (Rattus norvegicus, UniProt P06211).
T2 sequence (P06211 1-600): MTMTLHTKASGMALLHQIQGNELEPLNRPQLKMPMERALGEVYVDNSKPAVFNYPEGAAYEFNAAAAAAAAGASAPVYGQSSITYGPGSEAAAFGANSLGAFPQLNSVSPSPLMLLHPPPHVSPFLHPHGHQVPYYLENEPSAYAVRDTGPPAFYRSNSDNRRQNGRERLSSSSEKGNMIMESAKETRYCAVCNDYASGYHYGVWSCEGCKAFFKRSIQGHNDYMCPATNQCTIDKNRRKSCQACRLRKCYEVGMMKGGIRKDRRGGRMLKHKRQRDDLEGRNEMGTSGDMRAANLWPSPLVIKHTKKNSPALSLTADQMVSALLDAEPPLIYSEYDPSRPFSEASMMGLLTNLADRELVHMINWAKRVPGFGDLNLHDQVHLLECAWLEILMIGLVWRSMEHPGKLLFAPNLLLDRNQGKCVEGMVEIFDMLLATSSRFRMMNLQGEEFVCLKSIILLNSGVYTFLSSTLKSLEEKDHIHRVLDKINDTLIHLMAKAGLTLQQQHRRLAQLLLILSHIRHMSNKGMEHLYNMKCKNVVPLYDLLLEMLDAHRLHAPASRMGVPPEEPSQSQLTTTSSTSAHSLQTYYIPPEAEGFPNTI
As to the kind of experiment: ER-α transactivation, ERE-LUC in COS or 293 cells. It counts as cell-based. On the set-up: % estardiol activity, ER-α: dose or concentration left out as unconfirmed. Particulars: for inhibition of estradiol (E2) induced ER-α activity (luciferase expression): with estrogen.

T1 sequence (Q62986 whole entry): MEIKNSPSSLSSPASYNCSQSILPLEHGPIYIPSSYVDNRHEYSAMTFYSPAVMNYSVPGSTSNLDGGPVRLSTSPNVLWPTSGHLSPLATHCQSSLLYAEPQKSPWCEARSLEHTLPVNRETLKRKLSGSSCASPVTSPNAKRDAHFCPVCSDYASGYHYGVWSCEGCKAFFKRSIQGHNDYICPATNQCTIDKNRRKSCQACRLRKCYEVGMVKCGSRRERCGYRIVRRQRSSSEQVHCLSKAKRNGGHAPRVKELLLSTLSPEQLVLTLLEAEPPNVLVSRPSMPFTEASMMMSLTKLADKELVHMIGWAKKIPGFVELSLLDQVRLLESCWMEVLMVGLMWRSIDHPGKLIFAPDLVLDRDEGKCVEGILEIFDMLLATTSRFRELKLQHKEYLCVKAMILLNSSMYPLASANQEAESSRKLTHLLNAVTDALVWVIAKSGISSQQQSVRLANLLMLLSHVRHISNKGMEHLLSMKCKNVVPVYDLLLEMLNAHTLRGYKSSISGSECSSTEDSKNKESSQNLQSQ

As for `O=C(c1ccccc1)N(c1ccc(O)cc1)c1ccc(OCCN2CCCCC2)cc1` [Compound 4a, N-(4-hydroxyphenyl)-N-[4-(2-piperidin-1-ylethoxy)-phenyl]-benzamide], the “estrogenic activity in terms of uterine weight” value with uterus is recorded as “exhibited estrogenic activity, in terms of increased uterine weight; also recorded: exhibited estrogenic activity, in vivo”. Also, in the experiment with uterus (with ICI-182,780), the “uterine weight increase, with ICI-182,780” value is “ICI-182,780 reversed 4a and 4g effects on uterine weight increase”. The “uterine weight, coadministered with estrogen” value in the experiment on uterus (with estrogen) is recorded as “an increase in uterine weight was observed”. Besides, in experiment [1], the “osteoclast differentiation / osteoclast activity” value is reported as “minimally but dose-dependently suppressed the osteoclast differentiation”. Also, on ER-β, the “ER-β LUC expression, compound alone” value is “neither 4a nor 4h stimulated LUC expression” and the “inhibition of E2-stimulated LUC expression, ER-β” value is reported as “inhibited E2-stimulated LUC expression”. The “% estardiol activity, ER-α” value on ER-α worked out at 29.9%. On ER-α (COS or 293 cells), the “ER-α activity (luciferase expression), compound alone” value is listed as “no effect on ER-α activity; also recorded: neither SERM alone showed any such effect” and the “inhibition of estradiol (E2) induced ER-α activity (luciferase expression)” value is “inhibited the estradiol (E2) induced ER-α activity to basal levels; also recorded: inhibited estrogen stimulated luciferase expression”. Besides, the concentration for half-maximal inhibition (IC50) on ER-α (ER alpha antagonists) was 35 nM.
As for `Cl.O=C(c1ccc(F)cc1)N(c1ccc(O)cc1)c1ccc(OCCN2CCCCC2)cc1` [Compound 4h, N-(4-hydroxyphenyl)-N-[4-(2-piperidin-1-ylethoxy)-phenyl]-4-fluroro-benzamide hydrochloride], the “estrogenic activity in terms of uterine weight” value with uterus is given as “exhibited no estrogenic, or anti-estrogenic activity in uterus”. Further, in experiment [1] (hydrochloride), the “osteoclast differentiation / osteoclast activity” value is “minimally but dose-dependently suppressed the osteoclast differentiation; also recorded: highly suppressive of osteoclast activity”. Besides, on ER-β, the “% estardiol activity, ER-β” value amounted to 29.1%; the “ER-β LUC expression, compound alone” value was “neither 4a nor 4h stimulated LUC expression”; the “inhibition of E2-stimulated LUC expression, ER-β” value was “inhibited E2-stimulated LUC expression”. In addition, the “% estardiol activity, ER-α” value at ER-α is recorded as 17.4%. In addition, the “inhibition of estradiol (E2) induced ER-α activity (luciferase expression)” value on ER-α (COS or 293 cells) was “inhibited estrogen stimulated luciferase expression”.
